Source: publication PMC6644330 (ACS Omega, 2017)
Marks after values point to notes of the source that are not given here.

Assays:
[1] = type: physicochemical; conditions: for log KOW (eq 5b): corrected for phase volume ratio vO/vW; for migration from water to octanol (log KOW could not be measured): zwitterions
[2] = cited from earlier work
[3] = 1H NMR method, preliminary account in the Magritek laboratory manual; cited from earlier work

Compound	log KOW (eq 5b) ([1]; 20–21 °C)	literature log KOW (ref ([9])) [2]	also measured
C1COCCO1 [1,4-dioxane]	–0.31	–0.27	–
CCC(C)O (stereo not shown) [2-butanol]	0.65	0.61	–
CC(C)CO [2-methylpropanol-1]	0.89	0.76	–
CC(C)=O [acetone]	–0.24	–0.24	KOW ([1]; single measurement, eq 4): 0.589; log KOW ([1]; single measurement, eq 4): −0.23; log KOW (ref ([14])) [3]: –0.23
CC#N [acetonitrile]	–0.28	–0.34	log KOW (ref ([14])) [3]: –0.51
C[C@H](N)C(=O)O [alanine]	–	–	migration from water to octanol (log KOW could not be measured) [1]: did not migrate to any detectable extent
CCC(C)=O [butanone]	0.33	0.29	–
NCC(=O)O [glycine]	–	–	migration from water to octanol (log KOW could not be measured) [1]: did not migrate to any detectable extent

More lines, main results first:

log KOW (eq 5b) ([1]; 20–21 °C)	Compound	literature log KOW (ref ([9])) [2]	also measured
–1.87	C[S+](C)[O-] [dimethyl sulfoxide]	–1.35	literature log KOW [2]: −2.03 (ref ([1]))
–1.03	CN(C)C=O [dimethylformamide]	–	–
0.88	CCOC(C)=O [ethyl acetate]	0.73	–
–0.75	CO [methanol]	–0.77	log KOW (eq 5b), corrected for OH ([1]; 20–21 °C, corrected for phase volume ratio and for OH): −0.71 ^c; log KOW ± SD (eq 4, this work), corrected for OH ([1]; 20–21 °C, n = 5, equal phase volumes assumed, corrected for OH): –0.72 ^c ± 0.016 (n = 5); correction of log KOW for alcohol OH protons ([1]; increase of log KOW): 0.04
0.19	COC(C)=O [methyl acetate]	0.18	–
0.44	C1CCOC1 [tetrahydrofuran]	0.46	log KOW (ref ([14])) [3]: 0.43
